Assays:
[1] = biological target: T1, α4β3δ GABAA receptors (Homo sapiens, UniProt O14764+P28472+P48169); assay: Whole-cell patch clamp: potentiation of GABA EC20 currents at recombinant α4β3δ GABAA receptors; type: cell-based
T1 construct: expressed in transfected cells; host or cells: CHO cells, transiently transfected (Lipofectamine)
Description: Cellular electrophysiology was used to measure the pharmacological properties of ALLO, ganaxolone and SGE-516 in heterologous cell systems. Compounds were tested for their ability to affect GABA mediated currents at a submaximal agonist dose (GABA EC20=2 μM).
LTK cells were stably transfected with the α1β2γ2 subunits of the GABA receptor and CHO cells are transiently transfected with the α4β3γ subunits via the Lipofecatamine method. Cells were passaged at a confluence of about 50-80% and then seeded onto 35 mm sterile culture dishes containing 2 ml culture complete medium without antibiotics or antimycotics. Cells were cultivated at a density that enabled the recording of single cells without visible connections to other cells.
Whole-cell currents were measured with HEKA EPC-10 amplifiers using PatchMaster software. Bath solution for all experiments contained (in mM): NaCl 137, KCl 4, CaCl2 1.8, MgCl2 1, HEPES 10, D-Glucose 10, pH 7.4 with NaOH. Intracellular (pipette) solution contained (in mM): KCl 130, MgCl2 1, Mg-ATP 5, HEPES 10, EGTA 5, pH 7.2 with KOH. During experiments, cells and solutions were maintained at room temperature (19° C.-30° C.). For manual patchclamp recordings, cell culture dishes were placed on the dish holder of the microscope and continuously perfused (1 ml/min) with bath solution. After formation of a Gigaohm seal between the patch electrode and the cell (pipette resistance range: 2.5 MΩ-6.0MΩ; seal resistance range: >1 GΩ) the cell membrane across the pipette tip was ruptured to assure electrical access to the cell interior (whole-cell patch configuration).
Cells were voltage-clamped at a holding potential of −80 mV. GABAA receptors were activated by 2 μM GABA and compounds were sequentially applied at increasing concentrations for 30 s prior to a 2 s application of GABA. GABA and compounds were applied to cells via the Dynaflow perfusion system (Cellectricon, Sweden). Test compounds were dissolved in DMSO to form 10 mM stock solution and serially diluted to 0.01, 0.1, 1, and 10 μM in bath solution. There was no effect on GABA currents when DMSO was applied to cells at its maximal concentration in solution (0.1%). All concentrations of test compound were tested on each cell. The relative percentage potentiation was defined as the peak amplitude in response to GABA EC20 in the presence of test compound divided by the peak amplitude in response to GABA EC20 alone, multiplied by 100.
ALLO and ganaxolone are known PAMs of both synaptic and extrasynaptic GABAAR-mediated currents. The ability of candidate compound SGE-516 to act as a PAM was compared to ALLO and ganaxolone using the whole-cell recordings of recombinant human GABAA receptors expressed in mammalian cells. The α1β2γ2 or α4β3δ subunit combinations were chosen as representatives of typical synaptic and extrasynaptic GABAA receptors respectively. Similar to previous reports (Botella et al., 2015), ALLO, ganaxolone and SGE-516 allosterically potentiated currents induced by EC20 concentration of GABA in a concentration-dependent manner in both synaptic- and extrasynaptic-type GABAARs.

[2] = system: dentate gyrus granule cells (DGGCs); type: cell-based, mouse; settings: for tonic current after exposure and washout: 30-60 min wash, vehicle control 43.9±5.7 pA; for concentration dependence of tonic current after exposure and washout: maximal effects at 1 μM; for tonic current versus vehicle treated slices with PKC inhibitor GFX: GFX 50 μM 15 min, then co-exposure 15 min, ≥30 min washout
Description: Brain slices were prepared from 3- to 5-week-old male C57 mice. Mice were anesthetized with isoflurane, decapitated, and brains were rapidly removed and submerged in ice-cold cutting solution containing (mM): 126 NaCl, 2.5 KCl, 0.5 CaCl2, 2 MgCl2, 26 NaHCO3, 1.25 NaH2PO4, 10 glucose, 1.5 sodium pyruvate, and 3 kynurenic acid. Coronal 310 μm thick slices were cut with the vibratome VT1000S (Leica Microsystems, St Louis, Mo., USA). The slices were then transferred into incubation chamber filled with prewarmed (31-32° C.) oxygenated artificial cerebro-spinal fluid (ACSF) of the following composition (in mM): 126 NaCl, 2.5 KCl, 2 CaCl2, 2 MgCl2, 26 NaHCO3, 1.25 NaH2PO4, 10 glucose, 1.5 sodium pyruvate, 1 glutamine, 3 kynurenic acid and 0.005 GABA bubbled with 95% O2-5% CO2. Slices were allowed to recover at 32° C. for at least 1 hr before recording. Exogenous GABA was added in an attempt to standardize ambient GABA in the slice and provide an agonist source for newly inserted extrasynaptic GABAARs.
After recovery, a single slice was transferred to a submerged, dual perfusion recording chamber (Warner Instruments, Hamden, Conn., USA) on the stage of an upright microscope (Nikon FN-1) with a 40× water immersion objective equipped with DIC/IR optics. Slices were maintained at 32° C. and gravity-superfused with ACSF solution throughout experimentation and perfused at rate of 2 ml/min with oxygenated (O2/CO2 95/5%) ACSF.
Whole-cell currents were recorded from the dentate gyrus granule cells (DGGCs) in 310-μm-thick coronal hippocampal slices. Patch pipettes (5-7MΩ) were pulled from borosilicate glass (World Precision Instruments) and filled with intracellular solution of the composition (in mM) as follows: 140 CsCl, 1 MgCl2, 0.1 EGTA, 10 HEPES, 2 Mg-ATP, 4 NaCl and 0.3 Na-GTP (pH=7.2 with CsOH). A 5 min period for stabilization after obtaining the whole-cell recording conformation (holding potential of −60 mV) was allowed before currents were recorded using an Axopatch 200B amplifier (Molecular Devices), low-pass filtered at 2 kHz, digitized at 20 kHz (Digidata 1440A; Molecular Devices), and stored for offline analysis.
For tonic current measurements, an all-points histogram was plotted for a 10 s period before and during 100 μM picrotoxin application, once the response reached a plateau level. Recordings with unstable baselines were discarded. Fitting the histogram with a Gaussian distribution gave the mean baseline current amplitude and the difference between the amplitudes before and during picrotoxin was considered to be the tonic current. The negative section of the all-points histogram which corresponds to the inward IPSCs was not fitted with a Gaussian distribution (Kretschmannova et al., 2013; Nusser and Mody, 2002). Series resistance and whole-cell capacitance were continually monitored and compensated throughout the course of the experiment. Recordings were eliminated from data analysis if series resistance increased by >20%. Spontaneous inhibitory post-synaptic currents (sIPSCs) were analyzed using the mini-analysis software (version 5.6.4; Synaptosoft, Decatur, Ga.). Minimum threshold detection was set to 3 times the value of baseline noise signal. To assess sIPSC kinetics, the recording trace was visually inspected and only events with a stable baseline, sharp rising phase, and single peak were used to negate artifacts due to event summation. Only recordings with a minimum of 200 events fitting these criteria were analyzed. sIPSCs amplitude, and frequency from each experimental condition was pooled and expressed as mean±SEM. To measure sIPSC decay, 100 consecutive events were averaged and the decay was fitted to a double exponential and the weighted decay constant (tw) was determined. Statistical analysis was performed by using Student t-test (paired and unpaired where appropriate), where p<0.05 is considered significant.

[3] = potentiation of current at GABA EC20 (2 μM), n = 3

T1 sequence (P48169 36-554): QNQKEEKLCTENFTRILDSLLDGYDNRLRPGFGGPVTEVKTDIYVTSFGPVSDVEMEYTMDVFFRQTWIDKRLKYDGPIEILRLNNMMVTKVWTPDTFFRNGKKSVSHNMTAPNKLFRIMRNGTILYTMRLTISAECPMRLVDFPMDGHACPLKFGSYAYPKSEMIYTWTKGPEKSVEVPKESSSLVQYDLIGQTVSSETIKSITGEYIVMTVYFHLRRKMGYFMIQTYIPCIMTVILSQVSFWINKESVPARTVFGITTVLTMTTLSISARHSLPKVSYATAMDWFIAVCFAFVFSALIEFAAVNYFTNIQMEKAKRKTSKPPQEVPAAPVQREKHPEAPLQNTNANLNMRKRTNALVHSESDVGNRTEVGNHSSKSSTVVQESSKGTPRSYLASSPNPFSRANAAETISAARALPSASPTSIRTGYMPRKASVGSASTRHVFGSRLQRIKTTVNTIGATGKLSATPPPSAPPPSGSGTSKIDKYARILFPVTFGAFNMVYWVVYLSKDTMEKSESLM
T1 sequence (P28472 26-473): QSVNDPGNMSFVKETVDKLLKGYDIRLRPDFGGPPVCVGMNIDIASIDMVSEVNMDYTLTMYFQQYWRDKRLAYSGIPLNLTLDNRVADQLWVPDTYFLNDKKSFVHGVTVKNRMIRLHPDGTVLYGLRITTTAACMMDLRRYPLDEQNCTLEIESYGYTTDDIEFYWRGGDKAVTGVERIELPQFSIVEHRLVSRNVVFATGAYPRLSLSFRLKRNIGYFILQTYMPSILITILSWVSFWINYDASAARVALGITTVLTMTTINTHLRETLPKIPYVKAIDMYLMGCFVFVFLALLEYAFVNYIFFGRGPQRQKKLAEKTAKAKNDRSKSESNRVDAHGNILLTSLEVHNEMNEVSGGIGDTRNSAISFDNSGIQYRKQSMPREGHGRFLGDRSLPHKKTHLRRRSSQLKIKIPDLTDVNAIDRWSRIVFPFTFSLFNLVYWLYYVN
T1 sequence (O14764 25-452): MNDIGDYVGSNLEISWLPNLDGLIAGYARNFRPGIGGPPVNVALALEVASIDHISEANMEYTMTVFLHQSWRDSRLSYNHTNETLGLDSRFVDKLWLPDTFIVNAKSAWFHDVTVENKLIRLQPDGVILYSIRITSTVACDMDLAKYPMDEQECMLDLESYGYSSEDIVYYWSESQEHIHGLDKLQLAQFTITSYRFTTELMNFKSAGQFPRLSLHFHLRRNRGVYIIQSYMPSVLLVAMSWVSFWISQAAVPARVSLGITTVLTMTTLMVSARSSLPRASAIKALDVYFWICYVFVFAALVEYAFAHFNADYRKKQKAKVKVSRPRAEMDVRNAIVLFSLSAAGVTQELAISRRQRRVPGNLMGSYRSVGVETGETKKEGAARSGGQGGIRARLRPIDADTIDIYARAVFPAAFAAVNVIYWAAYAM

SMILES: CC(=O)[C@H]1CC[C@H]2[C@@H]3CC[C@H]4C[C@](C)(O)CC[C@]4(C)[C@H]3CC[C@]12C [Ganaxolone]
- pEC50 ± S.E.M., α4β3δ [1, 3]: 7.0 ± 0.1
- tonic current after exposure and washout ([2]; 1 μM, 15 min incubation): 57.4±6.3 pA
- magnitude of tonic current versus control ([2]; 1 μM, 15 min incubation, wash): did not significantly alter

SMILES: C[C@@]1(O)CC[C@@]2(C)[C@H](CC[C@@H]3[C@@H]2CC[C@]2(C)[C@@H](C(=O)Cn4nccn4)CC[C@@H]32)C1 [SGE-516]
- EC50 [1, 3]: 193 nM
- Emax ± S.E.M., α4β3δ ([1]; relative percentage potentiation of GABA EC20 current): 505 ± 19%
- tonic current after 100 nM exposure and washout, WT slices [2]: significant increased
- tonic current after exposure and washout ([2]; 1 μM, 15 min incubation): 123.0±22.2 pA
- concentration dependence of tonic current after exposure and washout ([2]; 15 min incubation, wash): concentration-dependent increase
- tonic current versus vehicle treated slices with PKC inhibitor GFX [2]: no significant difference

SMILES: CC(=O)[C@H]1CC[C@H]2[C@@H]3CC[C@H]4C[C@H](O)CC[C@]4(C)[C@H]3CC[C@]12C [ALLO, Allopregnanolone]
- pEC50 ± S.E.M., α4β3δ [1, 3]: 7.2 ± 0.3
- tonic current after 100 nM exposure and washout, WT slices [2]: significant increase
- tonic current after exposure and washout ([2]; 1 μM, 15 min incubation): 95.8±10.8 pA
- concentration dependence of tonic current after exposure and washout ([2]; 15 min incubation, wash): concentration-dependent increase
- tonic current versus vehicle treated slices with PKC inhibitor GFX [2]: no significant difference
